SMILES strings stand for the structures.

Data set [1] relates to MV4-11. In words: cells. As to conditions: Homo sapiens.
Description: Antiproliferative activity against human MV4-11 cells by CCK-8 assay
Another data set concerns A549. As to the kind of experiment: cells. As to conditions: Homo sapiens.
A further data set deals with HCT-116. As to the kind of experiment: cells. The following applies: Homo sapiens.
In data set [2] the test system is MV4-11. As to the kind of experiment: Cell cycle arrest in human MV4-11 cells assessed as accumulation at G1-phase at 0.2 uM measured after 24 hrs by propidium iodide staining based flow cytometry (reference value: 70.31%). Type of data set: functional.
Data set [3] concerns MV4-11. As to the kind of experiment: Cell cycle arrest in human MV4-11 cells assessed as accumulation at G2-phase at 0.2 uM measured after 24 hrs by propidium iodide staining based flow cytometry (reference value: 8.87%). Type of data set: functional. For orientation: Flow cytometry measures light scatter and fluorescence of single cells or particles in a stream.
Data set [4] has as its system MV4-11. In words: Cell cycle arrest in human MV4-11 cells assessed as accumulation at S-phase at 0.2 uM measured after 24 hrs by propidium iodide staining based flow cytometry (reference value: 20.83%). Type of data set: functional.
Data set [5] relates to MV4-11. As to the kind of experiment: Induction of apoptosis in human MV4-11 cells assessed as viable cells at 0.2 uM measured after 24 hrs by Annexin V-FITC/propidium iodide staining based flow cytometry (reference value: 92.7%). It counts as functional. As to conditions: read-out: Activity.
Data set [6] concerns MV4-11. As to the kind of experiment: Induction of apoptosis in human MV4-11 cells assessed as early apoptotic cells at 0.2 uM measured after 24 hrs by Annexin V-FITC/propidium iodide staining based flow cytometry (reference value: 5.2%). It counts as functional.
The test system of data set [7] is MV4-11. In words: Induction of apoptosis in human MV4-11 cells assessed as late apoptotic cells at 0.2 uM measured after 24 hrs by Annexin V-FITC/propidium iodide staining based flow cytometry (reference value: 2%). It counts as functional.
Data set [8] has as its system MV4-11. In words: Induction of apoptosis in human MV4-11 cells assessed as necrotic cells at 0.2 uM measured after 24 hrs by Annexin V-FITC/propidium iodide staining based flow cytometry (reference value: 0.2%). Type of data set: functional.
Data set [9] concerns MV4-11. As to the kind of experiment: Induction of mitochondrial membrane potential loss in human MV4-11 cells assessed as cells with high MMP (aggregates) at 0.2 uM measured after 24 hrs by JC-1 staining based flow cytometry (reference value: 97%). It counts as functional.
Data set [10] relates to MV4-11. As to the kind of experiment: Induction of mitochondrial membrane potential loss in human MV4-11 cells assessed as cells with low MMP (monomers) at 0.2 uM measured after 24 hrs by JC-1 staining based flow cytometry (reference value: 2.9%). It counts as functional.
Data set [11] in a line: Effect on total FLT3 expression in human MV4-11 cells at 0.2 uM measured after 24 hrs by Western blot analysis. Type of data set: toxicity, cell-based. The following applies: mv4-11, 24 h. On the technique in general: Immunoblotting shows a protein as a band on a membrane.
Data set [12] in a line: Effect on total STAT5 expression in human MV4-11 cells at 0.2 uM measured after 24 hrs by Western blot analysis. Type of data set: toxicity, cell-based. The following applies: mv4-11, 24 h.
Data set [13] in a line: Effect on total ERK expression in human MV4-11 cells at 0.2 uM measured after 24 hrs by Western blot analysis. Type of data set: toxicity, cell-based. As to conditions: mv4-11, 24 h.
Data set [14] is described as follows: Effect on total AKT expression in human MV4-11 cells at 0.2 uM measured after 24 hrs by Western blot analysis. It counts as toxicity, cell-based. The following applies: mv4-11, 24 h.
In data set [15] the target is Mast/stem cell growth factor receptor Kit (Homo sapiens, UniProt P10721).
Description: Inhibition of c-Kit (unknown origin)
A further data set in a line: in vitro. The following applies: human, HEK293T cells.

Mast/stem cell growth factor receptor Kit, sequence (P10721 whole entry): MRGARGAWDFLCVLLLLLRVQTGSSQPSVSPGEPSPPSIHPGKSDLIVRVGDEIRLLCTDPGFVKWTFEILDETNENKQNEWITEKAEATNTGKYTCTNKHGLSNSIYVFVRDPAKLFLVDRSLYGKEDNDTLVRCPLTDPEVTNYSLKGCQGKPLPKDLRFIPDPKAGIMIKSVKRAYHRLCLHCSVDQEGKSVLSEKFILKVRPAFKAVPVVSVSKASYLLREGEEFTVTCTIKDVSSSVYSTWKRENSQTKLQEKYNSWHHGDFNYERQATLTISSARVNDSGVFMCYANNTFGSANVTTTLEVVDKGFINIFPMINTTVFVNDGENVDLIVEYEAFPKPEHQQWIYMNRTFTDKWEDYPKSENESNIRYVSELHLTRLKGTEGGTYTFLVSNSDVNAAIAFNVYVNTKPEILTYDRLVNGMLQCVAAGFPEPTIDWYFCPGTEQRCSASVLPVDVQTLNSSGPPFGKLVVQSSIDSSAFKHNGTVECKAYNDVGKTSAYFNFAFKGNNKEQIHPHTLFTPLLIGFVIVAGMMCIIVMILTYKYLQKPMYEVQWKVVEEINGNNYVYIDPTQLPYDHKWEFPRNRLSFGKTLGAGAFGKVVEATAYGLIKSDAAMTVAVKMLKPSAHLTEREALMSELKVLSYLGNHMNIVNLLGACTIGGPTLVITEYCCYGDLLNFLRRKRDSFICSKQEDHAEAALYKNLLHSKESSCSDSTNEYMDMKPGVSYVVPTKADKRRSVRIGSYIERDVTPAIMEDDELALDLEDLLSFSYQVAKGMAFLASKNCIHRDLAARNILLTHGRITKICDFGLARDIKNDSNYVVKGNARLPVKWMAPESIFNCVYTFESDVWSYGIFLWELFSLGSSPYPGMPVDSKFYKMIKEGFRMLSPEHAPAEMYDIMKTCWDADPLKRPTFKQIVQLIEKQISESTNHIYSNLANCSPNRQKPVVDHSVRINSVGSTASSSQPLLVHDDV
Description for A549: Antiproliferative activity against human A549 cells by CCK-8 assay
Description for HCT-116: Antiproliferative activity against human HCT-116 cells by CCK-8 assay
Description for in vitro: Cytotoxicity against HEK293T cells by CCK-8 assay

Regarding `N#Cc1cnc(NC2CCCC2)nc1Nc1ccc(Oc2ccccc2)cc1`, the IC50 with MV4-11 [1] was 35.2 µM; in the data set with A549 it was above 50 µM; with HCT-116, above 50 µM.

Regarding `CN1CCC(Nc2nc(Nc3ccc(Oc4ccccc4)cc3)c3ccccc3n2)CC1`, the results for the IC50 in the data set on MV4-11 [1], in the data set on A549 and with HCT-116 were 5.13 µM, 4.05 µM and 8.51 µM, respectively.

With `Cc1nc(NC2CCN(C)CC2)nc(Nc2ccc(Oc3ccccc3)cc2)c1C(=O)O`, the IC50 in the data set on MV4-11 [1], in the data set on A549 and in the data set on HCT-116 was above 50 µM in each case.

As to `CN1CCC(Nc2nc(Nc3ccc(Oc4ccccc4)cc3)c3c(=O)[nH]cc(Br)c3n2)CC1` [DENFIVONTINIB], the Activity with MV4-11 [2] came to 89.36%; with MV4-11 [3] it was 4.11%; in the data set on MV4-11 [4], 6.52%; in the data set on MV4-11 [6], 49.6%; in the data set on MV4-11 [7] it was 33.9%; in the data set with MV4-11 [8], 0.7%. Also, the Activity with MV4-11 [9] was 85.1%; in the data set on MV4-11 [10], 14.6%; in data set [11], “Non-toxic”; in [12], “Non-toxic”; in [13], “Non-toxic”; in [14], “Non-toxic”. Besides, the viability at 0.2 µM with MV4-11 [5] turned out to be 15.8%. The IC50 in [15] was 0.0038 µM; in the data set with MV4-11 [1], 0.003 µM; in the data set with A549 it was 0.14 µM; in the data set on HCT-116, 3.13 µM; in “in vitro”, 9.67 µM.

For the compound `CCOC(=O)c1c(C)nc(NC2CCN(C)CC2)nc1Nc1ccc(Oc2ccccc2)cc1`, the IC50 in the data set with MV4-11 [1] stood at 5.36 µM; in the data set with A549, 7.86 µM; in the data set with HCT-116, 1.35 µM.

On to `CCNC(=O)c1c(C)nc(NC2CCN(C)CC2)nc1Nc1ccc(Oc2ccccc2)cc1`, for which the IC50 was found to be 5.03 µM with MV4-11 [1], 20 µM with A549 and 23.4 µM in the data set on HCT-116.

`N#Cc1cnc(N2CCCC2)nc1Nc1ccc(Oc2ccccc2)cc1`: the IC50 in the data set with MV4-11 [1] was 30.9 µM; in the data set with A549, above 50 µM; with HCT-116, above 50 µM.

As to `NC(=O)c1cnc(NC2CCCC2)nc1Nc1ccc(Oc2ccccc2)cc1`, the results for the IC50 in the data set with MV4-11 [1], in the data set with A549 and in the data set on HCT-116 were 7.68 µM, 20 µM and 23.3 µM, respectively.

What is called IC50 is the concentration that inhibits the measured activity by half. Read a low IC50 as greater potency in that assay.

For the origin of these results see ChEMBL document CHEMBL6114951, “Discovery of 3-amide-pyrimidine-based derivatives as potential fms-like tyrosine receptor kinase 3 (FLT3) inhibitors for treating acute myelogenous leukemia” (Bioorg Med Chem Lett, 2025).
